# Tests used:
# human thrombocytes = test: Inhibition of the collagen-induced aggregation of human thrombocytes in vitro; type: cell-based; conditions: human thrombocytes in vitro; for EC50: 10 min, concentration which inhibits the collagen-induced aggregation by 50%, 10 minutes incubation, read-out: Inhibition of collagen-induced thrombocyte aggregation in vitro, EC 50%; for Inhibition of aggregation, R.A. (relative activity): acetylsalicylic acid = 1.00
# Procedure: 1. Inhibition of the collagen-induced aggregation of human thrombocytes in vitro.
# Thrombocyte-rich plasma is obtained by centrifuging venous citrate blood (300 g, 10 minutes duration at 4° C.). The photometric measurement of the thrombocyte aggregation is carried out with addition of MgCl2 (final concentration 10 millimoles/l) and of collagen Stago (final concentration 0.02 mg/ml) in a Born Mk 3 aggregometer. The maximum extinction change/sec is used as a measure of the aggregation.
# The aggregation-inhibiting activity of the substances is tested after an incubation time of 10 minutes.
# The EC 50% is taken to be the concentration causing 50% inhibition of aggregation.
# (§1) The effective doses or effective concentrations were calculated from the linear relationships between the logarithm of the dose or concentration and the logarithm of the effect, by means of regression analysis.
# (§2) Acetylsalicylic acid was used as the reference substance for the inhibition of thrombocyte aggregation and dihydralazine for the anti-hypertensive effect.
# narcotized rats = test: Anti-hypertensive effect on narcotized rats; type: in vivo, rat (male Sprague-Dawley); conditions: rats under urethane narcosis, intraperitoneal; for ED (20%): Rattus norvegicus, ip, dose which lowers the blood pressure by 20%, read-out: Reduction in blood pressure, ED 20%; for Reduction in blood pressure, R.A. (relative activity): dihydralazine = 1.00
# Procedure: 3. Anti-hypertensive effect on narcotized rats.
# To test the anti-hypertensive effect, the substances are administered intraperitoneally to groups of 3-5 male Sprague-Dawley rats weighing 240-280 g, under urethane narcosis ([…] given intraperitoneally).
# The measurement of the blood pressure in the carotid artery is carried out by means of Statham transducers. The ED 20% is determined as the dose which lowers the mean carotid blood pressure by 20%.
# as §1, §2
SMILES,EC50 (human thrombocytes) [µg/mL],"Inhibition of aggregation, R.A. (relative activity) (human thrombocytes)",ED (20%) (narcotized rats) [mg/kg],"Reduction in blood pressure, R.A. (relative activity) (narcotized rats)"
"CC1(C(=O)Nc2ccc(C3=NNC(=O)C4CC34)cc2)CC1(Cl)Cl (stereo not drawn) [Example 26, 2-[p-(2,2-dichloro-1-methylcyclopropylcarbonylamino)-phenyl]-3,4-diaza-bicyclo[4.1.0]hept-2-en-5-one]",1.91,259,0.786,0.43
"C/C=C/C(=O)Nc1ccc(C2=NNC(=O)C3CC23)cc1 (stereo not drawn) [Example 29, 2-(p-crotonoylaminophenyl)-3,4-diaza-bicyclo[4.1.0]-hept-2-en-5-one]",2.12,233,1.71,0.20
"O=C(CCCl)Nc1ccc(C2=NNC(=O)C3CC23)cc1 (stereo not drawn) [Example 19, 2-[p-(3-chloropropionylamino)-phenyl]-3,4-diaza-bicyclo[4.1.0]hept-2-en-5-one]",3.52,140,0.688,0.49
"CC(C)(CBr)C(=O)Nc1ccc(C2=NNC(=O)C3CC23)cc1 (stereo not drawn) [Example 22, 2-(p-bromopivaloylaminophenyl)-3,4-diaza-bicyclo[4.1.0]hept-2-en-5-one]",3.47,142,2.96,0.11
"O=CNc1ccc(C2=NNC(=O)C3CC23)cc1 (stereo not drawn) [Example 10, 2-(p-formylaminophenyl)-3,4-diaza-bicyclo[4.1.0]hept-2-en-5-one]",6.81,73,0.253,1.33
"CCC(C)C(=O)Nc1ccc(C2=NNC(=O)C3CC23)cc1 (stereo not drawn) [Example 18, 2-[p-(2-methylbutyrylamino)-phenyl]-3,4-diaza-bicyclo[4.1.0]hept-2-en-5-one]",3.99,124,0.9,0.37
"O=C(Nc1ccc(C2=NNC(=O)C3CC23)cc1)c1ccccc1 (stereo not drawn) [Example 30, 2-(p-benzoylaminophenyl)-3,4-diaza-bicyclo[4.1.0]hept-2-en-5-one]",6.01,82,> 10,< 0.03

# Further lines, with some results ahead:
EC50 (human thrombocytes) [µg/mL],SMILES,"Inhibition of aggregation, R.A. (relative activity) (human thrombocytes)",ED (20%) (narcotized rats) [mg/kg],"Reduction in blood pressure, R.A. (relative activity) (narcotized rats)"
1.8,"CC1CC1C(=O)Nc1ccc(C2=NNC(=O)C3CC23)cc1 (stereo not drawn) [Example 25, 2-[p-(2-methylcyclopropylcarbonylamino)-phenyl]-3,4-diaza-bicyclo[4.1.0]hept-2-en-5-one]",274,0.649,0.52
5.09,"O=C(Nc1ccc(C2=NNC(=O)C3CC23)cc1)C1CCCCC1 (stereo not drawn) [Example 28, 2-(p-cyclohexylcarbonylaminophenyl)-3,4-diaza-bicyclo[4.1.0]-hept-2-en-5-one]",97,0.415,0.81
0.95,"O=C(CCl)Nc1ccc(C2=NNC(=O)C3CC23)cc1 (stereo not drawn) [Example 12, 2-(p-chloroacetylaminophenyl)-3,4-diaza-bicyclo[4.1.0]hept-2-en-5-one]",518,0.299,1.13
2.99,"O=C(Nc1ccc(C2=NNC(=O)C3CC23)cc1)C(Cl)Cl (stereo not drawn) [Example 23, 2-(p-dichloroacetylaminophenyl)-3,4-diaza-bicyclo[4.1.0]hept-2-en-5-one]",165,1.5,0.23
0.38,"C=CC(=O)Nc1ccc(C2=NNC(=O)C3CC23)cc1 (stereo not drawn) [Example 14, 2-(p-acryloylaminophenyl)-3,4-diaza-bicyclo[4.1.0]hept-2-en-5-one]",1310,0.298,1.13

# Source: patent publication US4271163A, “Novel 3,4-diaza-bicyclo[4.1.0]hept-2-en-5-ones, their preparation, and therapeutic agents containing these compounds” (BASF Aktiengesellschaft, priority 1978, dated 1981)
